Results from ChEMBL document CHEMBL5543105, “Total synthesis and structural modification of the dibenzylbutane lignan LCA as a potent anti-inflammatory agent against LPS-induced acute lung injury” (Eur J Med Chem, 2024).
Activity calls are given as the source filed them. The calls are words filed in the database; no cut-off is given here.

Key:
RAW264.7 [1] = experiment: Cytotoxicity against mouse RAW264.7 cells upto 20 uM incubated for 24 hrs by CCK-8 assay; format: toxicity, cell-based; conditions: raw264.7, 24 h
RAW264.7 [2] = experiment: Anti-inflammatory activity against mouse RAW264.7 cells assessed as inhibition of LPS-induced NO production at 20 uM incubated for 24 hrs; format: functional, cell-based
Mus musculus [3] = experiment: Anti-inflammatory activity against LPS-induced acute […] injury C57BL/6 mouse model assessed as reduction in bleeding points in lung at 20 mg/kg, ip administered for 1 hr and measured after 6 hrs by H and E staining based analysis; format: functional, organism-based; conditions: time 7.0 hrs
Mus musculus [4] = experiment: Anti-inflammatory activity against LPS-induced acute […] injury C57BL/6 mouse model assessed as improvement in alveolar structure at 20 mg/kg, ip administered for 1 hr and measured after 6 hrs by H and E staining based analysis; format: functional, organism-based; conditions: time 7.0 hrs
Mus musculus [5] = experiment: Anti-inflammatory activity against LPS-induced acute […] injury C57BL/6 mouse model assessed as reduction in lung edema at 20 mg/kg, ip administered for 1 hr and measured after 6 hrs by H and E staining based analysis; format: functional, organism-based; conditions: time 7.0 hrs
Mus musculus [6] = experiment: Anti-inflammatory activity against LPS-induced acute […] injury C57BL/6 mouse model assessed as reduction in wet weight to dry weight ratio in lung at 20 mg/kg, ip administered for 1 hr and measured after 6 hrs; format: functional, organism-based; conditions: time 7.0 hrs
Mus musculus [7] = experiment: Anti-inflammatory activity against LPS-induced acute […] injury C57BL/6 mouse model assessed as reduction in congestion in lung at 20 mg/kg, ip administered for 1 hr and measured after 6 hrs by H and E staining based analysis; format: functional, organism-based; conditions: time 7.0 hrs
Mus musculus [8] = experiment: Anti-inflammatory activity against LPS-induced acute […] injury C57BL/6 mouse model assessed as improvement in destruction of lung structure at 20 mg/kg, ip administered for 1 hr and measured after 6 hrs by H and E staining based analysis; format: functional, organism-based; conditions: time 7.0 hrs
Mus musculus [9] = experiment: Anti-inflammatory activity against LPS-induced acute […] injury C57BL/6 mouse model assessed as improvement in alveolar wall thickness at 20 mg/kg, ip administered for 1 hr and measured after 6 hrs by H and E staining based analysis; format: functional, organism-based; conditions: time 7.0 hrs
Mus musculus [10] = experiment: Anti-inflammatory activity against LPS-induced acute […] injury C57BL/6 mouse model assessed as improvement in pulmonary hemorrhage at 20 mg/kg, ip administered for 1 hr and measured after 6 hrs by H and E staining based analysis; format: functional, organism-based; conditions: time 7.0 hrs
Mus musculus [11] = experiment: Anti-inflammatory activity against LPS-induced acute […] injury C57BL/6 mouse model assessed as reduction in alveolar thickness in lung at 20 mg/kg, ip administered for 1 hr and measured after 6 hrs by H and E staining based analysis; format: functional, organism-based; conditions: time 7.0 hrs
Mus musculus [12] = experiment: Anti-inflammatory activity against LPS-induced acute […] injury C57BL/6 mouse model assessed as reduction in inflammatory cell infiltration at 20 mg/kg, ip administered for 1 hr and measured after 6 hrs by H and E staining based analysis; format: functional, organism-based; conditions: time 7.0 hrs
Mus musculus [13] = experiment: Anti-inflammatory activity against LPS-induced acute […] injury C57BL/6 mouse model assessed as improvement in lung edema at 20 mg/kg, ip administered for 1 hr and measured after 6 hrs by H and E staining based analysis; format: functional, organism-based; conditions: time 7.0 hrs

SMILES | Activity (RAW264.7 [1]) | also measured
COc1ccc(N2CCN(C(=O)[C@@H](Cc3cc(OC)c(O)c(OC)c3)[C@@H](Cc3cc(OC)c(O)c(OC)c3)C(=O)N3CCN(c4ccc(OC)cc4)CC3)CC2)cc1 | Non-Toxic | 
COc1cccc(N2CCN(C(=O)[C@@H](Cc3cc(OC)c(O)c(OC)c3)[C@@H](Cc3cc(OC)c(O)c(OC)c3)C(=O)N3CCN(c4cccc(OC)c4)CC3)CC2)c1 | Non-Toxic | 
COc1cc(C[C@H](C(=O)N2CCOCC2)[C@@H](Cc2cc(OC)c(O)c(OC)c2)C(=O)N2CCOCC2)cc(OC)c1O | Non-Toxic | Activity (RAW264.7 [2]): Active
COc1cc(C[C@H](C(=O)N2CCN(c3ccccc3Br)CC2)[C@@H](Cc2cc(OC)c(O)c(OC)c2)C(=O)N2CCN(c3ccccc3Br)CC2)cc(OC)c1O | Non-Toxic | 
COc1cc(/C=C/C(=O)OC[C@H](Cc2cc(OC)c(O)c(OC)c2)[C@@H](COC(=O)/C=C/c2ccc(O)c(OC)c2)Cc2cc(OC)c(O)c(OC)c2)ccc1O |  | Activity (Mus musculus [3]): Active; Activity (Mus musculus [4]): Active; Activity (Mus musculus [5]): Active; Activity (Mus musculus [6]): Active; Activity (Mus musculus [7]): Active; Activity (Mus musculus [8]): Active; Activity (Mus musculus [9]): Active; Activity (Mus musculus [10]): Active; Activity (Mus musculus [11]): Active; Activity (Mus musculus [12]): Active; Activity (Mus musculus [13]): Active
COc1cc(C[C@H](C(=O)N2CCN(c3cccc(Cl)c3Cl)CC2)[C@@H](Cc2cc(OC)c(O)c(OC)c2)C(=O)N2CCN(c3cccc(Cl)c3Cl)CC2)cc(OC)c1O | Non-Toxic | 
COc1cc(C[C@H](C(=O)N2CCN(c3ccc(C(F)(F)F)cc3)CC2)[C@@H](Cc2cc(OC)c(O)c(OC)c2)C(=O)N2CCN(c3ccc(C(F)(F)F)cc3)CC2)cc(OC)c1O | Non-Toxic | 
COc1cc(C[C@H](C(=O)N2CCN(c3ccccc3Cl)CC2)[C@@H](Cc2cc(OC)c(O)c(OC)c2)C(=O)N2CCN(c3ccccc3Cl)CC2)cc(OC)c1O | Non-Toxic | Activity (RAW264.7 [2]): Active
COc1cc(C[C@H](C(=O)NC2CCC2)[C@@H](Cc2cc(OC)c(O)c(OC)c2)C(=O)NC2CCC2)cc(OC)c1O | Non-Toxic | 
COc1cc(C[C@H](C(=O)NC2CC2)[C@@H](Cc2cc(OC)c(O)c(OC)c2)C(=O)NC2CC2)cc(OC)c1O | Non-Toxic | 
COc1cc(C[C@H](C(=O)N2CCN(c3ccc(F)cc3F)CC2)[C@@H](Cc2cc(OC)c(O)c(OC)c2)C(=O)N2CCN(c3ccc(F)cc3F)CC2)cc(OC)c1O | Non-Toxic | Activity (RAW264.7 [2]): Active
COc1cc(C[C@H](C(=O)N2CCN(c3ccc(C)cc3)CC2)[C@@H](Cc2cc(OC)c(O)c(OC)c2)C(=O)N2CCN(c3ccc(C)cc3)CC2)cc(OC)c1O | Non-Toxic | 
COc1cc(C[C@H](C(=O)N2CCN(c3ccccc3)CC2)[C@@H](Cc2cc(OC)c(O)c(OC)c2)C(=O)N2CCN(c3ccccc3)CC2)cc(OC)c1O | Non-Toxic | 
COc1cc(C[C@H](C(=O)NCC2CCCCC2)[C@@H](Cc2cc(OC)c(O)c(OC)c2)C(=O)NCC2CCCCC2)cc(OC)c1O | Non-Toxic | 
COc1cc(C[C@H](C(=O)N2CCCCC2)[C@@H](Cc2cc(OC)c(O)c(OC)c2)C(=O)N2CCCCC2)cc(OC)c1O | Non-Toxic | 
COc1cc(C[C@H](C(=O)NC2CC(F)(F)C2)[C@@H](Cc2cc(OC)c(O)c(OC)c2)C(=O)NC2CC(F)(F)C2)cc(OC)c1O | Non-Toxic | 
COc1cc(C[C@H](C(=O)N2CCN(c3ccc(Cl)cc3)CC2)[C@@H](Cc2cc(OC)c(O)c(OC)c2)C(=O)N2CCN(c3ccc(Cl)cc3)CC2)cc(OC)c1O | Non-Toxic | Activity (RAW264.7 [2]): Active

SMILES | Activity (RAW264.7 [1]) | also measured
COc1cc(C[C@H](C(=O)NC2CCCCC2)[C@@H](Cc2cc(OC)c(O)c(OC)c2)C(=O)NC2CCCCC2)cc(OC)c1O | Non-Toxic | 
COc1cc(C[C@H](C(=O)N2CCN(c3ccccc3F)CC2)[C@@H](Cc2cc(OC)c(O)c(OC)c2)C(=O)N2CCN(c3ccccc3F)CC2)cc(OC)c1O | Non-Toxic | 
COc1cc(C[C@H](C(=O)N2CCN(c3ccc(F)cc3)CC2)[C@@H](Cc2cc(OC)c(O)c(OC)c2)C(=O)N2CCN(c3ccc(F)cc3)CC2)cc(OC)c1O | Non-Toxic | 
COc1cc(C[C@H](C(=O)N2CCN(c3cccc(Cl)c3)CC2)[C@@H](Cc2cc(OC)c(O)c(OC)c2)C(=O)N2CCN(c3cccc(Cl)c3)CC2)cc(OC)c1O | Non-Toxic | Activity (RAW264.7 [2]): Active
CCCCCCNC(=O)[C@@H](Cc1cc(OC)c(O)c(OC)c1)[C@@H](Cc1cc(OC)c(O)c(OC)c1)C(=O)NCCCCCC | Non-Toxic | 
COc1cc(C[C@H](C(=O)NC2CCC(OC)CC2)[C@@H](Cc2cc(OC)c(O)c(OC)c2)C(=O)NC2CCC(OC)CC2)cc(OC)c1O (some centres not stated) | Non-Toxic | 
COc1cc(C[C@H](C(=O)N2CCN(c3ccccc3C)CC2)[C@@H](Cc2cc(OC)c(O)c(OC)c2)C(=O)N2CCN(c3ccccc3C)CC2)cc(OC)c1O | Non-Toxic | Activity (RAW264.7 [2]): Active
COc1cc(C[C@H](C(=O)N2CCN(c3cccc(C)c3)CC2)[C@@H](Cc2cc(OC)c(O)c(OC)c2)C(=O)N2CCN(c3cccc(C)c3)CC2)cc(OC)c1O | Non-Toxic | 
COc1cc(C[C@H](C(=O)NC2CC(OC)C2)[C@@H](Cc2cc(OC)c(O)c(OC)c2)C(=O)NC2CC(OC)C2)cc(OC)c1O (some centres not stated) | Non-Toxic | 
CNC(=O)[C@@H](Cc1cc(OC)c(O)c(OC)c1)[C@@H](Cc1cc(OC)c(O)c(OC)c1)C(=O)NC | Non-Toxic | 
COc1cc(C[C@H](C(=O)N2CCN(c3ccccc3C(F)(F)F)CC2)[C@@H](Cc2cc(OC)c(O)c(OC)c2)C(=O)N2CCN(c3ccccc3C(F)(F)F)CC2)cc(OC)c1O | Non-Toxic | Activity (RAW264.7 [2]): Active
COc1ccccc1N1CCN(C(=O)[C@@H](Cc2cc(OC)c(O)c(OC)c2)[C@@H](Cc2cc(OC)c(O)c(OC)c2)C(=O)N2CCN(c3ccccc3OC)CC2)CC1 | Non-Toxic | 
COc1cc(C[C@H](C(=O)N2CCN(c3cccc(F)c3)CC2)[C@@H](Cc2cc(OC)c(O)c(OC)c2)C(=O)N2CCN(c3cccc(F)c3)CC2)cc(OC)c1O | Non-Toxic | 
COc1cc(C[C@H](C(=O)N2CCN(C)CC2)[C@@H](Cc2cc(OC)c(O)c(OC)c2)C(=O)N2CCN(C)CC2)cc(OC)c1O | Non-Toxic | Activity (RAW264.7 [2]): Active
COc1cc(C[C@H](C(=O)N2CCN(c3cccc(C(F)(F)F)c3)CC2)[C@@H](Cc2cc(OC)c(O)c(OC)c2)C(=O)N2CCN(c3cccc(C(F)(F)F)c3)CC2)cc(OC)c1O | Non-Toxic | Activity (RAW264.7 [2]): Active
COc1cc(C[C@H](C(=O)NCC2CCC2)[C@@H](Cc2cc(OC)c(O)c(OC)c2)C(=O)NCC2CCC2)cc(OC)c1O | Non-Toxic | 
